Data reported in US7776875B2, “Spiroindolinone derivatives” (Hoffman-La Roche Inc., priority 2007, dated 2010).

The molecules below were run against recombinant GST-tagged MDM2 / p53-peptide interaction (Homo sapiens, UniProt Q00987) (assay: HTRF assay of inhibition of the p53-MDM2 interaction). Conditions: 0.02% BSA.
Chain of recombinant GST-tagged MDM2 / p53-peptide interaction (Q00987 whole entry): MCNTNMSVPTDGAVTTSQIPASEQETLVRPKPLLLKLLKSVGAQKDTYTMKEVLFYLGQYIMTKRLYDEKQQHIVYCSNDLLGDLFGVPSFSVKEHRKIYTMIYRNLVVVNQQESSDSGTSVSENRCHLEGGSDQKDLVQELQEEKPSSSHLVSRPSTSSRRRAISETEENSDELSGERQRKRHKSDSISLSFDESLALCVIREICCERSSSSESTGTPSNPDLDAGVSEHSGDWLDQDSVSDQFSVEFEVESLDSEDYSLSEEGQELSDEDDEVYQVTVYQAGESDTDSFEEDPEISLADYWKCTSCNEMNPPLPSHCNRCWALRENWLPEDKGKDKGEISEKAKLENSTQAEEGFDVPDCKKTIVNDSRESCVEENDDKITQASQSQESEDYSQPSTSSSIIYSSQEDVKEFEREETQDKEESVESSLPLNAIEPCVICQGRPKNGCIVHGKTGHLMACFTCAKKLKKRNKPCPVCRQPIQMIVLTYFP
Assay type: binding
Method: The ability of the compounds to inhibit the interaction between p53 and MDM2 proteins was measured by an HTRF (homogeneous time-resolved fluorescence) assay in which recombinant GST-tagged MDM2 binds to a peptide that resembles the MDM2-interacting region of p53 (Lane et al.). Binding of GST-MDM2 protein and p53-peptide (biotinylated on its N-terminal end) is registered by the FRET (fluorescence resonance energy transfer) between Europium (Eu)-labeled anti-GST antibody and streptavidin-conjugated Allophycocyanin (APC).
[…] Add 10 uL diluted compounds (1:5 dilution in reaction buffer) to each well, mix by shaking. Add 20 uL biotinylated p53 peptide (180 nM working solution) in reaction buffer to each well and mix on shaker. Incubate at 37° C. for h. Add 20 uL streptavidin-APC and Eu-anti-GST antibody mixture (6 nM Eu-anti-GST and 60 nM streptavidin-APC working solution) in TBS buffer with 0.2% BSA, shake at room temperature for 30 minutes and read using a TRF-capable plate reader at 665 and 615 nm (Victor 5, Perkin ElmerWallac). If not specified, the reagents were purchased from Sigma Chemical Co.
Work on `Cc1ccc(F)cc1[C@@H]1NC(=O)C[C@H](c2cc(Cl)ccc2OC(C)(C)C(=O)N2CCC(F)(F)CC2)[C@@]12C(=O)Nc1cc(Cl)ccc12` [Example 29b, (2′S,3S,4′R)-6-chloro-4′-{5-chloro-2-[2-(4,4-difluoro-piperidin-1-yl)-1,1-dimethyl-2-oxo-ethoxy]-phenyl}-2′-(5-fluoro-2-methyl-phenyl)spiro[3H-indole-3,3′-piperidine]-2,6′(1H)-dione] yielded an IC50 of 0.054 µM.
In the case of `CN(C)C(=O)C(C)(C)Oc1ccc(Cl)cc1[C@H]1CC(=O)N[C@@H](c2cc(Cl)ccc2F)[C@]12C(=O)Nc1cc(Cl)ccc12` (racemic) [Example 34d, (2′R,3S,4′R)-6-chloro-4′-[5-chloro-2-(1-dimethylcarbamoyl-1-methyl-ethoxy)-phenyl]-2′-(2-fluoro-5chloro-phenyl)spiro[3H-indole-3,3′-piperidine]-2,6′(1H)-dione], the IC50 is reported as 0.155 µM.
Work on `Cc1ccc(F)cc1[C@@H]1NC(=O)C[C@H](c2cc(Cl)ccc2OC2(C(=O)NS(=O)(=O)c3ccc(F)cc3)CCC2)[C@@]12C(=O)Nc1cc(Cl)ccc12` (racemic) [Example 11, Racemic (2′S,3S,4′R)-6-chloro-4′-{5-chloro-2-[1-(4-fluoro-benzenesulfonylaminocarbonyl)-cyclobutoxy]-phenyl}-2′-(5-fluoro-2-methyl-phenyl)-spiro[3H-indole-3,3′-piperidine]-2,6′(1H)-dione] yielded an IC50 of 0.065 µM.
`Cc1ccc(F)cc1[C@@H]1NC(=O)C[C@H](c2cc(Cl)ccc2OC(C)(C)C(=O)NC2CCN(C)CC2)[C@@]12C(=O)Nc1cc(Cl)ccc12` (racemic) [Example 1g, Racemic (2′S,3S,4′R)-6-chloro-4′-{5-chloro-2-[1-methyl-1-(1-methyl-piperidin-4-ylcarbamoyl)-ethoxy]-phenyl}-2′-(5-fluoro-2-methyl-phenyl)spiro[3H-indole-3,3′-piperidine]-2,6′(1H)-dione] showed an IC50 of 0.278 µM.
`Cc1ccc(F)cc1[C@@H]1NC(=O)C[C@H](c2cc(Cl)ccc2OC(C)(C)C(=O)NCCN2CCCCC2)[C@@]12C(=O)Nc1cc(Cl)ccc12` (racemic) [Example 8, Racemic (2′S,3S,4′R)-6-chloro-4′-{5-chloro-2-[1-methyl-1-(2-piperidin-1-yl-ethylcarbamoyl)-ethoxy]-phenyl}-2′-(5-fluoro-2-methyl-phenyl)-spiro[3H-indole-3,3′-piperidine]-2,6′(1H)-dione] showed an IC50 of 0.327 µM.
